Where two headings read alike, the source gives them in different places.
What was measured:
human H4 receptor = human H4 receptor (Homo sapiens (Human), UniProt Q9H3N8); test: H4 Binding assay ([3H]histamine competition, membranes from CHO-K1 cells transfected with human H4 receptor)
Experimental: Affinity for histamine H4-receptor was determined by H4 Binding assay:
• Membranes from CHO-K1 cells transfected with human H4 receptor and microplates of 96-well format were used. • For competition studies cell membranes were homogenated in Tris-HCl 50 mM, EDTA 5 mM, pH 7.4 and added to the microplate at the concentration of approximately 15 μg/well. […] Non specific binding was defined using 10 μM unlabeled histamine and the total incubation volume was 275 μl per well. • Incubations were performed under gentle agitation at 25° C. for 60 min and concluding with a rapid vacuum filtration using pre-soaked filters (0.5% polyethylenimine). After ten rapid washes with cold wash buffer (50 mM Tris-HCl buffer) the filter plates were dried at room temperature for 30 min. • Finally, scintillation liquid (Microscint 20) was added to the whole microplate in order to measure the radioactivity reattained on the filters using a specific scintillation counter (Top Count—NXT). […] H1 Binding Assay Materials

human H1 receptor = human H1 receptor (Homo sapiens (Human), UniProt P35367); test: H1 Binding assay ([3H]pyrilamine competition, membranes from CHO-K1 cells transfected with human H1 receptor); settings: affinity for human histamine H1 receptor, class symbols; — not defined in key; read-out: ACTIVITY CLASS hH1R (Ki)
human H1 receptor, sequence (P35367 whole entry): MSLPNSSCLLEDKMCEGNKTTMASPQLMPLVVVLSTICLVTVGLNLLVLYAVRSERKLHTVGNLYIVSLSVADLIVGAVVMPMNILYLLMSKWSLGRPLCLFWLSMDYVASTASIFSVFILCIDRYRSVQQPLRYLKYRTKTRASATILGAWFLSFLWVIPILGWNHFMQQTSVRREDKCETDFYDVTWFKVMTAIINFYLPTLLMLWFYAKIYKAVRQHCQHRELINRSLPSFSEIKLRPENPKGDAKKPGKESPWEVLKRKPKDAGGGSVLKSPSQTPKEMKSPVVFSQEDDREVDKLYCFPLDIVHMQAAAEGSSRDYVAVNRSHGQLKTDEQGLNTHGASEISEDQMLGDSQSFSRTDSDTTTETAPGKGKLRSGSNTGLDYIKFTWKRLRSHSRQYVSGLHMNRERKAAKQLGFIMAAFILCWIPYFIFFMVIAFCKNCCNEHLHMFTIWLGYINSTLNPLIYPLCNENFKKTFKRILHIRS
Experimental: Cetirizine and pyrilamine were supplied by Sigma-Aldrich. Bilastine was synthetized at FAES FARMA facilities (Lamiako-Leioa, Spain), chemical reagents such as Na2HPO4, KH2PO4 or polyvinylpyrrolidone as well as multiscreen microplates (MSFBN6B50) were purchased from Merck Millipore, scintillation liquid (Microscint 20), human H1 membranes (ES-390-M400UA) and ^3H-pirilamina (NET 594) were provided by PerkinElmer.
Affinity for histamine H1-receptor was determined by H1 Binding assay: • Membranes form CHO-K1 cells transfected with human H1 receptor and microplates of 96-well format were used. • For competition studies cell membranes were homogenated in 50 mM phosphate buffer (Na2HPO4 and KH2PO4 mixed to pH 7.4 at 25° C.) and added to the microplate at the concentration of approximately 5 μg/well. […] Non specific binding was defined using 10 μM unlabeled pyrilamine and the total incubation volume was 275 μl per well. • Incubations were performed until gentle agitation at 25° C. for 60 min and concluding with a rapid vacuum filtration using pre-soaked filters (5% polyvinylpyrrolidone). After ten rapid washes with cold wash buffer (50 mM phosphate buffer) the filter plates were dried at room temperature for 30 min. • Finally, scintillation liquid (Microscint 20) was added to the whole microplate in order to measure the radioactivity retained on the filters using an specific scintillation counter (Top Count—NXT). Curve analysis and values of IC50 were determined using Grap Pad Prism program (GraphPad Software, San Diego, USA). • Test compounds were initially evaluated at one concentration (1 μM) and thereafter if significant displacement was observed (>40%) a concentration-response curve was conducted. Each test concentration was measured in triplicate. • As reference compounds pyrilamine, cetirizine and Bilastine were used.

[1] = affinity for human histamine H4 receptor, class symbols, read-out: ACTIVITY CLASS hH4R (Ki)

| Structure (SMILES) | Ki (human H4 receptor; [1]) | Ki (human H1 receptor) | IC50 (human H4 receptor; histamine H4 receptor binding) | inhibition at 1 µM (human H4 receptor; histamine H4 receptor binding, compounds initially evaluated at 1 μM) | Ki (human H4 receptor; histamine H4 receptor, comparative compounds, read-out: Ki) |
| --- | --- | --- | --- | --- | --- |
| Cc1ccsc1CNc1nc(N2CCN(C)CC2)nc2cnc(Cl)cc12 [Example 68, 6-chloro-2-(4-methylpiperazin-1-yl)-N-((3-methylthiophen-2-yl)methyl)pyrido[3,4-d]pyrimidin-4-amine] | < 1000 nM | < 1000 nM | – | – | – |
| CN1CCN(c2nc(NCc3cccs3)c3cc(Cl)ncc3n2)CC1 [Example 3, 6-chloro-2-(4-methylpiperazin-1-yl)-N-(thiophen-2-ylmethyl)pyrido[3,4-d]pyrimidin-4-amine] | < 100 nM | < 1000 nM | 1.74 nM | 94% | 0.75 nM |
| CN1CCN(c2nc(NCc3ccco3)c3cc(Cl)ncc3n2)CC1 [Example 4, 6-chloro-N-(furan-2-ylmethyl)-2-(4-methylpiperazin-1-yl)pyrido[3,4-d]pyrimidin-4-amine] | < 100 nM | < 1000 nM | – | – | – |
| Cc1cc2c(NCc3cccs3)nc(N3CCNCC3)nc2cn1 [Example 60, 6-methyl-2-(piperazin-1-yl)-N-(thiophen-2-ylmethyl)pyrido[3,4-d]pyrimidin-4-amine] | < 1000 nM | < 1000 nM | – | – | – |
| COc1ccccc1NS(=O)(=O)CCNc1nc(N2CCN(C)CC2)nc2cnc(Cl)cc12 [Example 74, 2-((6-chloro-2-(4-methylpiperazin-1-yl)pyrido[3,4-d]pyrimidin-4-yl)amino)-N-(2-methoxyphenyl)ethane-1-sulfonamide] | < 100 nM | < 1000 nM | – | – | – |
| CC(C)c1cc2c(NCCS(=O)(=O)Nc3ccccc3)nc(N3CCN(C)CC3)nc2cn1 [Example 54, 2-((6-isopropyl-2-(4-methylpiperazin-1-yl)pyrido[3,4-d]pyrimidin-4-yl)amino)-N-phenylethane-1-sulfonamide] | < 100 nM | < 1000 nM | – | – | – |

Continued, values first:

| Ki (human H4 receptor; [1]) | Ki (human H1 receptor) | IC50 (human H4 receptor; histamine H4 receptor binding) | inhibition at 1 µM (human H4 receptor; histamine H4 receptor binding, compounds initially evaluated at 1 μM) | Ki (human H4 receptor; histamine H4 receptor, comparative compounds, read-out: Ki) | Structure (SMILES) |
| --- | --- | --- | --- | --- | --- |
| < 1000 nM | < 1000 nM | – | – | – | Cc1ccc(CNc2nc(N3CCN(C)CC3)nc3cnc(Cl)cc23)s1 [Example 69, 6-chloro-2-(4-methylpiperazin-1-yl)-N-((5-methylthiophen-2-yl)methyl)pyrido[3,4-d]pyrimidin-4-amine] |
| < 100 nM | < 1000 nM | – | – | – | CN1CCN(c2nc(NCCS(=O)(=O)Cc3ccccc3)c3cc(Cl)ncc3n2)CC1 [Example 94, N-(2-(benzylsulfonyl)ethyl)-6-chloro-2-(4-methylpiperazin-1-yl)pyrido[3,4-d]pyrimidin-4-amine] |
| < 1000 nM | < 1000 nM | – | – | – | Clc1cc2c(NCc3ccco3)nc(N3CCNCC3)nc2cn1 [Example 25, 6-chloro-N-(furan-2-ylmethyl)-2-(piperazin-1-yl)pyrido[3,4-d]pyrimidin-4-amine] |
| < 100 nM | < 1000 nM | – | – | – | CN1CCN(c2nc(NCCS(=O)(=O)N(C)c3ccccc3)c3cc(Cl)ncc3n2)CC1 [Example 17, 2-((6-chloro-2-(4-methylpiperazin-1-yl)pyrido[3,4-d]pyrimidin-4-yl)amino)-N-methyl-N-phenylethane-1-sulfonamide] |

Reference: patent publication US12492199B2, “Pyridopyrimidines as histamine H4-receptor inhibitors” (FAES FARMA, S.A., priority 2018, dated 2025)
